IC50 data for 34 compounds are collected here from patent US20250179059A1 (The Regents of the University of California, priority 2021, published 2025).

In the test the target is T1, human BRD4 bromodomain II (Homo sapiens, UniProt O60885).
T1 construct: human BRD4 bromodomain II [based on Genbank NM_058243, residues 349-460]; host or cells: E. coli
Briefly: Bromodomain binding assay (AlphaScreen), BRD4 BDII. As to conditions: AlphaScreen assay, Table C2; read-out: BRD4 BDII IC50. Here is the method: Bromodomain Binding Assay
The bromodomain binding assay utilizes AlphaScreen technology. Compounds compete with a biotinylated peptide ligand (from histone H4: aa 1-21, K5/K8/K12/K16Ac-biotin) for binding to a hexahistidine (His6)-tagged bromodomain. Peptide binding is detected by fluorescence signal after singlet oxygen energy transfer from peptide-bound AlphaScreen streptavidin-coated donor beads to His6-tagged bromodomain-bound nickel-chelate acceptor beads (PerkinElmer). Briefly, 8 μL 2.5× bromodomain (E. coli expressed, N-terminal His6-tagged human BRD4 bromodomain II [based on Genbank NM_058243, residues 349-460] or N-terminal His6-tagged human BRD4 bromodomain I [residues 44-170]) in reaction buffer (50 mM HEPES [pH 7.5], 100 mM NaCl, 0.05% CHAPS, 0.1% BSA, 1% DMSO) is added to wells of an assay plate (384-well low flange white, flat bottom, polystyrene microplate, Corning #3572; buffer only is added to some wells as a negative control). A compound concentration series (10 concentrations, 3-fold serial dilutions previously prepared in 100% DMSO, or 100% DMSO only negative control) is delivered to the assay plate with an Echo 550 acoustic liquid handler (Labcyte), followed by plate centrifugation and incubation for 30 minutes at room temperature. Then 4 μL 5× biotinylated peptide ligand is added, followed by plate centrifugation and gentle shaking for 30 minutes at room temperature to mix. After this incubation, 4 μL 5× donor beads are added, and the plate is centrifuged, followed by brief gentle shaking to mix. Finally, 4 μL 5× acceptor beads are added, and the plate is centrifuged, followed by gentle shaking for 60 minutes at room temperature in the dark. AlphaScreen signal (excitation/emission: 680 nm/520-620 nm) is detected with an EnSpire multimode plate reader (PerkinElmer). Percentage peptide binding is plotted as a function of concentration, and curve fitting is used to determine competitive compound binding ICsos.
For orientation: In Alpha technology, singlet oxygen from a donor bead excites a nearby acceptor bead.
The term IC50 denotes the concentration needed to halve the response being measured. Turning to `CC(=O)Nc1ccc(-c2cccc(-c3ccncc3)c2O)cc1F` [Example 67, N-(3-Fluoro-2′-hydroxy-3′-(pyridin-4-yl)-[1,1′-biphenyl]-4-yl)acetamide], the 50% inhibitory concentration (IC50) was above 100 nM.

On to `CC(=O)Nc1ccc(-c2cccc(-c3cc(N4CCNCC4)no3)c2O)cc1Oc1ccccc1` [Example 68, N-(2′-Hydroxy-3-phenoxy-3′-(3-(piperazin-1-yl)isoxazol-5-yl)-[1,1′-biphenyl]-4-yl)acetamide 2,2,2-trifluoroacetate], for which the IC50 lay in the range of 10 to 100 nM.

For the compound `CCOC(=O)c1ccc(-c2cccc(-c3ccc(NC(C)=O)c(F)c3)c2O)cc1` [Example 69, Ethyl 4″-acetamido-3″-fluoro-2′-hydroxy-[1,1′:3′,1″-terphenyl]-4-carboxylate], the 50% inhibitory concentration (IC50) is above 100 nM.

With `CCOC(=O)c1cccc(-c2cccc(-c3ccc(NC(C)=O)c(F)c3)c2O)c1` [Example 70, Ethyl 4″-acetamido-3″-fluoro-2′-hydroxy-[1,1′:3′,1″-terphenyl]-3-carboxylate], the concentration for half-maximal inhibition (IC50) is above 100 nM.

For `CCOc1ccc(-c2cccc(-c3ccc(NC(C)=O)c(F)c3)c2O)cc1` [Example 71, N-(4″-ethoxy-3-fluoro-2′-hydroxy-[1,1′:3′,1″-terphenyl]-4-yl)acetamide], the concentration for half-maximal inhibition (IC50) is above 100 nM.

Regarding `CCOc1cccc(-c2cccc(-c3ccc(NC(C)=O)c(F)c3)c2O)c1` [Example 72, N-(3″-Ethoxy-3-fluoro-2′-hydroxy-[1,1′:3′,1″-terphenyl]-4-yl)acetamide], the 50% inhibitory concentration (IC50) was above 100 nM.

In the case of `CC(=O)Nc1ccc(-c2cccc(-c3ccc(NC(C)=O)c(OC4CCCC4)c3)c2O)cc1F` [Example 73, N,N′-(3-(Cyclopentyloxy)-3″-fluoro-2′-hydroxy-[1,1′:3′,1″-terphenyl]-4,4″-diyl)diacetamide], the half-inhibitory concentration (IC50) is above 100 nM.

For the compound `CC(=O)Nc1ccc(-c2cccc(-c3ccc(C(C)C)cc3)c2O)cc1F` [Example 74, N-(3-Fluoro-2′-hydroxy-4″-isopropyl-[1,1′:3′,1″-terphenyl]-4-yl)acetamide], the half-maximal inhibitory concentration (IC50) is above 100 nM.

For the compound `CC(=O)Nc1ccc(-c2cccc(-c3cccc(C(C)C)c3)c2O)cc1F` [Example 75, N-(3-Fluoro-2′-hydroxy-3″-isopropyl-[1,1′:3′,1″-terphenyl]-4-yl)acetamide], the IC50 was above 100 nM.

With `CC(=O)Nc1ccc(-c2cccc(-c3cc(N4CCNCC4)no3)c2O)cn1` [Example 76, N-(5-(2-Hydroxy-3-(3-(piperazin-1-yl)isoxazol-5-yl)phenyl)pyridin-2-yl)acetamide 2,2,2-trifluoroacetate], the IC50 was above 100 nM.

In the case of `CC(=O)Nc1ccc(-c2cccc(-c3cccc(Cl)c3)c2O)cc1F` [Example 77, N-(3″-Chloro-3-fluoro-2′-hydroxy-[1,1′:3′,1″-terphenyl]-4-yl)acetamide], the concentration for half-maximal inhibition (IC50) is above 100 nM.

With `CC(=O)Nc1ccc(-c2cccc(-c3cccc(C(F)(F)F)c3)c2O)cc1F` [Example 78, N-(3-Fluoro-2′-hydroxy-3″-(trifluoromethyl)-[1,1′:3′,1″-terphenyl]-4-yl)acetamide], the IC50 is above 100 nM.

`CCc1cccc(-c2cccc(-c3ccc(NC(C)=O)c(F)c3)c2O)c1` [Example 79, N-(3″-Ethyl-3-fluoro-2′-hydroxy-[1,1′:3′,1″-terphenyl]-4-yl)acetamide]: the IC50 is above 100 nM.

For the compound `CC(=O)Nc1ccc(-c2cccc(-c3ccc(Cl)cc3)c2O)cc1F` [Example 81, N-(4″-Chloro-3-fluoro-2′-hydroxy-[1,1′:3′,1″-terphenyl]-4-yl)acetamide], the IC50 was above 100 nM.

Take `CCc1ccc(-c2cccc(-c3ccc(NC(C)=O)c(F)c3)c2O)cc1` [Example 82, N-(4″-Ethyl-3-fluoro-2′-hydroxy-[1,1′:3′,1″-terphenyl]-4-yl)acetamide]: the 50% inhibitory concentration (IC50) is above 100 nM.

With `CC(=O)Nc1ccc(-c2cccc(-c3ccc(C(F)(F)F)cc3)c2O)cc1F` [Example 83, N-(3-Fluoro-2′-hydroxy-4″-(trifluoromethyl)-[1,1′:3′,1″-terphenyl]-4-yl)acetamide], the IC50 is above 100 nM.

`CC(=O)Nc1ccc(-c2cc(F)cc(-c3cnn(C4CCN(C)CC4)c3)c2O)cc1F` [Example 84, N-(3,5′-Difluoro-2′-hydroxy-3′-(1-(1-methylpiperidin-4-yl)-1H-pyrazol-4-yl)-[1,1′-biphenyl]-4-yl)acetamide]: the half-maximal inhibitory concentration (IC50) was above 100 nM.

Turning to `CC(=O)Nc1ccc(-c2cccc(-c3cnc(-c4ccccc4)o3)c2O)cc1F` [Example 85, N-(3-Fluoro-2′-hydroxy-3′-(2-phenyloxazol-5-yl)-[1,1′-biphenyl]-4-yl)acetamide], the IC50 was above 100 nM.

With `CC(=O)Nc1c(F)cc(-c2cccc(-c3cc(N4CCNCC4)no3)c2O)cc1F` [Example 86, N-(3,5-Difluoro-2′-hydroxy-3′-(3-(piperazin-1-yl)isoxazol-5-yl)-[1,1′-biphenyl]-4-yl)acetamide 2,2,2-trifluoroacetate], the IC50 fell in the range of 10 to 100 nM.

For the compound `CC(=O)Nc1ccc(-c2cccc(-c3ccc(NC(C)=O)c(OC(C)C)c3)c2O)cc1F` [Example 87, N,N′-(3-Fluoro-2′-hydroxy-3″-isopropoxy-[1,1′:3′,1″-terphenyl]-4,4″-diyl)diacetamide], the IC50 is above 100 nM.

Regarding `CCc1cc(-c2cccc(-c3ccc(NC(C)=O)c(F)c3)c2O)ccc1NC(C)=O` [Example 88, N,N′-(3-Ethyl-3″-fluoro-2′-hydroxy-[1,1′:3′,1″-terphenyl]-4,4″-diyl)diacetamide], the IC50 was above 100 nM.

Turning to `CC(=O)Nc1ccc(-c2cccc(-c3cc(N4CCNCC4)no3)c2O)cc1OC1CCCC1` [Example 89, N-(3-(Cyclopentyloxy)-2′-hydroxy-3′-(3-(piperazin-1-yl)isoxazol-5-yl)-[1,1′-biphenyl]-4-yl)acetamide 2,2,2-trifluoroacetate], the IC50 was in the range of 10 to 100 nM.

On to `CC(=O)Nc1ccc(-c2cccc(-c3ccc(Oc4ccccc4)cc3)c2O)cc1F` [Example 90, N-(3-Fluoro-2′-hydroxy-4″-phenoxy-[1,1′:3′,1″-terphenyl]-4-yl)acetamide], for which the IC50 is above 100 nM.

On to `CC(=O)Nc1ccc(-c2cccc(-c3cccc(Oc4ccccc4)c3)c2O)cc1F` [Example 91, N-(3-Fluoro-2′-hydroxy-3″-phenoxy-[1,1′:3′,1″-terphenyl]-4-yl)acetamide], for which the IC50 was above 100 nM.

Regarding `CCNC(=O)c1ccc(-c2cccc(-c3ccc(NC(C)=O)c(F)c3)c2O)cc1` [Example 92, 4″-Acetamido-N-ethyl-3″-fluoro-2′-hydroxy-[1,1′:3′,1″-terphenyl]-4-carboxamide], the IC50 was above 100 nM.

For `CCNC(=O)c1cccc(-c2cccc(-c3ccc(NC(C)=O)c(F)c3)c2O)c1` [Example 93, 4″-Acetamido-N-ethyl-3″-fluoro-2′-hydroxy-[1,1′:3′,1″-terphenyl]-3-carboxamide], the half-maximal inhibitory concentration (IC50) is above 100 nM.

For the compound `CC(=O)Nc1ccc(-c2cccc(-c3ccc(N4CCOCC4)cc3)c2O)cc1F` [Example 94, N-(3-Fluoro-2′-hydroxy-4″-morpholino-[1,1′:3′,1″-terphenyl]-4-yl)acetamide], the IC50 was above 100 nM.

`CC(=O)Nc1ccc(-c2cccc(-c3ccc(NC(C)=O)c(C(C)C)c3)c2O)cc1F` [Example 96, N,N′-(3-Fluoro-2′-hydroxy-3″-isopropyl-[1,1′:3′,1″-terphenyl]-4,4″diyl)diacetamide]: the 50% inhibitory concentration (IC50) is above 100 nM.

`COc1cc(-c2cccc(-c3ccc(NC(C)=O)c(F)c3)c2O)ccn1` [Example 97, N-(3-Fluoro-2′-hydroxy-3′-(2-methoxypyridin-4-yl)-[1,1′-biphenyl]-4-yl)acetamide]: the 50% inhibitory concentration (IC50) was above 100 nM.

Regarding `COc1ccc(-c2cccc(-c3ccc(NC(C)=O)c(F)c3)c2O)cn1` [Example 98, N-(3-Fluoro-2′-hydroxy-3′-(6-methoxypyridin-3-yl)-[1,1′-biphenyl]-4-yl)acetamide], the concentration for half-maximal inhibition (IC50) is 10 to 100 nM.

With `CC(=O)Nc1ccc(-c2cccc(-c3ccc(NC(C)=O)c(F)c3)c2O)cc1` [Example 99, N,N′-(3-Fluoro-2′-hydroxy-[1,1′:3′,1″-terphenyl]-4,4″-diyl)diacetamide], the IC50 fell in the range of 10 to 100 nM.

Consider `CC(=O)Nc1c(F)cc(-c2cccc(-c3cc(N4CCNCC4)no3)c2O)cc1OC1CCC1` [Example 100, N-(3-Cyclobutoxy-5-fluoro-2′-hydroxy-3′-(3-(piperazin-1-yl)isoxazol-5-yl)-[1,1′-biphenyl]-4-yl)acetamide], for which the IC50 is 1 to 10 nM.

As to `CC(=O)Nc1ccc(-c2cccc(-c3ccc4c(c3)CCCN4C(C)=O)c2O)cc1F` [Example 101, N-(3′-(1-Acetyl-1,2,3,4-tetrahydroquinolin-6-yl)-3-fluoro-2′-hydroxy-[1,1′-biphenyl]-4-yl)acetamide], the IC50 is above 100 nM.

With `CC(=O)Nc1ccc(-c2cccc(-c3ccnnc3)c2O)cc1F` [Example 102, N-(3-Fluoro-2′-hydroxy-3′-(pyridazin-4-yl)-[1,1′-biphenyl]-4-yl)acetamide], the concentration for half-maximal inhibition (IC50) fell in the range of 10 to 100 nM.
